# Columns and labels:
# [1] = target: hFAP (Homo sapiens (Human), UniProt Q12884); assay: Saturation binding on isolated HEK-293.hFAP cell membranes; parameters: Bmax: unit not given here; details: 37° C.
# Protocol: The cells were homogenized using Ultra-Turrax, and the homogenized suspension was centrifuged at 500×g for 10 min at 4° C. The supernatant was collected in centrifuge tubes (Beckman Coulter Inc., Brea, CA, USA). This procedure was then repeated 5 times. The collected supernatant was centrifuged in an ultra-centrifuge (Beckman) at 4° C. for 55 min at 49,000×g. Then, the pellet was re-suspended in 10 mM ice-cold HEPES buffer (pH 7.5), aliquoted, and stored at −80° C. The protein concentration of those membrane suspensions was determined by the Bradford method, BSA as the standard.
# Each assay tube contained 170 μL of binding buffer (20 mM HEPES, pH 7.4, containing 4 mM μgCl2, 0.2% BSA, 20 μg/L bacitracin, 20 μg/L PMSF and 200,000 KIU/L aprotinin). The incubation was initiated by adding 30 μL of radioligand solution at 10 times the final concentration and 100 μL of cell membrane suspension to yield 10 μg of protein per well. For the determination of the non-specific binding, 140 μL of the above binding buffer was added along with 30 μL of FAPI-46 to obtain (0.1 mM). Bound fractions were plotted versus the corresponding radioligand concentration at equilibrium. The dissociation constant (KD) and maximal binding capacity (Bmax) values were calculated using GraphPad Software Inc., Prism 7, San Diego, CA, USA (Table 33 and FIG. 21).
# [2] = system: HT-1080.hFAP and HT-1080.wt xenografts; assay: Quantitative biodistribution in HT-1080.hFAP and HT-1080.wt xenografted mice; assay type: in vivo; details: for Biodistribution HT-1080.wt: FAP-negative tumor; for Biodistribution HT-1080.hFAP: FAP-positive tumor
# Protocol: The tumors were allowed to grow to an average volume of 100-200 mm3.
# Biodistribution Studies: The xenografted mice were randomized (n=5 per group) and injected intravenously via the tail vein with the ^61Cu-labeled radioligands (100 μL, […], 0.8-1MBq). Mice were euthanized 1h and 4h pi. by CO2 asphyxiation. Organs of interest and blood were collected, rinsed of excess blood, blotted dry, weighed, and counted in a […]. The samples were counted against a suitably diluted aliquot of the injected solution as the standard and the results are expressed as the percentage of the injected activity per gram of tissue (0% I.A./g)+SD.
# [3] = system: LNCaP xenografts; assay: Quantitative biodistribution in LNCaP xenografted mice; assay type: in vivo; details: LNCap xenograft mice, 1 h after injection
# Protocol: The mice were randomly distributed in groups and euthanized at 1 and at 4 hours post-injection. The organs of interest were collected, rinsed, blotted, weighed and counted in a gamma counter. The results are expressed as percentage of injected activity per gram (% IA/g), representing the mean±standard deviation of n=4-8 mice per group and they were obtained by extrapolation from counts of an aliquot taken from the injected solution as standard.
# The biodistribution of the [^61Cu]Cu-NODAGA radiotracers was compared with the reference compounds used in patients under identical experimental conditions. The mice were randomly distributed in groups, injected with the radiotracer under investigation and euthanized at 1 and at 4 hours post-injection of the radiotracers under investigation. The organs of interest were collected, rinsed, blotted, weighed and counted in a gamma counter. The results are expressed as percentage of injected activity per gram (% IA/g), representing the mean±standard deviation of all mice per group and they were obtained by extrapolation from counts of an aliquot taken from the injected solution as standard.
# [4] = Lipophilicity, log D by shake-flask method (1-octanol/PBS pH 7.4); assay type: physicochemical; details: shake-flask, Table 17, mean ± SD
# Protocol: The radiotracer (1 μM) was added to a 50:50 pre-saturated mixture of 1-octanol and phosphate buffered saline (PBSpH 7.4). The solution was vortexed for 30 min and then centrifuged at 3,000 rpm to achieve a phase separation. Aliquots from each phase were collected and measured in a gamma-counter. The distribution coefficient was calculated as the average of the logarithmic values of the ratio between the radioactivity in the organic and the PBS phase.
# Table 17. Lipophilicity expressed as the log distribution coefficient D (log D(Octanol/PBS pH7.4)) of ^61Cu-radiotracers versus ^68Ga-radiotracers (reference radiotracers).
# In a pre-lubricated Eppendorf tube, a pre-saturated mixture of 500 μL of 1-octanol and 500 μL of PBS pH 7.4 (phosphate-buffered saline) were added. An aliquot of […] in 10 μL of the radioligand was added to this mixture, shaken for 30 min, and then centrifuged at 3000 rcf for 10 min to achieve phase separation. Aliquots of 100 μL were removed from the 1-octanol and from the PBS phases, and the activity was measured in a […]. The partition coefficient was calculated as the average log ratio value of the radioactivity in the organic fraction and PBS fraction.
# [5] = 1 h p.i., HT-1080.hFAP and HT-1080.wt xenografts
# [6] = 4 h p.i., HT-1080.hFAP and HT-1080.wt xenografts
# Chain of hFAP (Q12884 whole entry): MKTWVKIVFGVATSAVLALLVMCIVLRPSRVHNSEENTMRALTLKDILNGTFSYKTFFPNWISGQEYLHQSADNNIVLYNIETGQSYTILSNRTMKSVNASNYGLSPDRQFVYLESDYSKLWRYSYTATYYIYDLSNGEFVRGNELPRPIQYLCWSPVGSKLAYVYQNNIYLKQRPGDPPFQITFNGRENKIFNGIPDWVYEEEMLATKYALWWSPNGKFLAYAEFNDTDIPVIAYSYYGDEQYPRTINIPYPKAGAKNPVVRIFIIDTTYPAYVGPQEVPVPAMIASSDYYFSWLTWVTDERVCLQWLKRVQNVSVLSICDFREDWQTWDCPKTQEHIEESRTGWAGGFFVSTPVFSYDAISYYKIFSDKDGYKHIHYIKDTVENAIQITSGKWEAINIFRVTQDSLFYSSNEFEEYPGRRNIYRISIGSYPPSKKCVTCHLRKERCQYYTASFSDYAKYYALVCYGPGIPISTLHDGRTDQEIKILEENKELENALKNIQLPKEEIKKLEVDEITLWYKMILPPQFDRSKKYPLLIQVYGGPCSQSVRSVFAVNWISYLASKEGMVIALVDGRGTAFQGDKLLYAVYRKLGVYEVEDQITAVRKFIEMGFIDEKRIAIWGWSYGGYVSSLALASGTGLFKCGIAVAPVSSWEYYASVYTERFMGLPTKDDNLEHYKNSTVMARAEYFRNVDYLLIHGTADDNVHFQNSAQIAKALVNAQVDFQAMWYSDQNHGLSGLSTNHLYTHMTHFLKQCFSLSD
smiles,measurement,setting,value
CN(C(=O)CCC(=O)NCCNC(=O)CC[C@H](C(=O)O)N1CCN2CCN(CC1)CC(=O)[O][61Cu][O]C(=O)C2)c1ccc2nccc(C(=O)NCC(=O)N3CC(F)(F)C[C@H]3C#N)c2c1 [[^61Cu]Cu-NODAGA-F2],Bmax,[1],7.7-8.4
same,Biodistribution Heart,[2]; 1 hour p.i.,0.6 ± 0.1 % I.A./g
same,Biodistribution Intestine,[2]; 1 hour p.i.,0.5 ± 0.1 % I.A./g
same,Biodistribution Liver,[2]; 1 hour p.i.,0.6 ± 0.1 % I.A./g
same,Biodistribution Lung,[2]; 1 hour p.i.,0.8 ± 0.1 % I.A./g
same,Biodistribution Muscle,[2]; 1 hour p.i.,0.9 ± 0.1 % I.A./g
same,Biodistribution Spleen,[2]; 1 hour p.i.,0.4 ± 0.1 % I.A./g
same,Biodistribution Stomach,[2]; 1 hour p.i.,0.6 ± 0.1 % I.A./g
same,Biodistribution Adrenal,[2]; [5],1.5 ± 0.3 % IA/g
same,Biodistribution Blood,[2]; [5],1.2 ± 0.1 % IA/g
same,Biodistribution Femur,[2]; [5],2.4 ± 0.3 % IA/g
same,Biodistribution HT1080.hFAP (FAP-positive tumor),[2]; [5],3.5 ± 1.0 % IA/g
same,Biodistribution HT1080.wt (FAP-negative tumor),[2]; [5],1.4 ± 0.2 % IA/g
same,Biodistribution Heart,[2]; [5],0.6 ± 0.1 % IA/g
same,Biodistribution Intestine,[2]; [5],0.5 ± 0.1 % IA/g
same,Biodistribution Kidney,[2]; [5],1.1 ± 0.1 % IA/g
same,Biodistribution Liver,[2]; [5],0.6 ± 0.1 % IA/g
same,Biodistribution Lung,[2]; [5],0.8 ± 0.1 % IA/g
same,Biodistribution Muscle,[2]; [5],0.9 ± 0.1 % IA/g
same,Biodistribution Pancreas,[2]; [5],1.1 ± 0.2 % IA/g
same,Biodistribution Spleen,[2]; [5],0.4 ± 0.1 % IA/g
same,Biodistribution Stomach,[2]; [5],0.6 ± 0.1 % IA/g
same,Biodistribution Adrenal,[2]; 4 hours p.i.,0.3 ± 0.1 % I.A./g
same,Biodistribution Blood,[2]; 4 hours p.i.,0.5 ± 0.1 % I.A./g
same,Biodistribution Heart,[2]; 4 hours p.i.,0.3 ± 0.0 % I.A./g
same,Biodistribution Intestine,[2]; 4 hours p.i.,0.3 ± 0.1 % I.A./g
same,Biodistribution Kidneys,[2]; 4 hours p.i.,1.0 ± 0.1 % I.A./g
same,Biodistribution Liver,[2]; 4 hours p.i.,0.6 ± 0.1 % I.A./g
same,Biodistribution Lung,[2]; 4 hours p.i.,0.4 ± 0.0 % I.A./g
same,Biodistribution Muscle,[2]; 4 hours p.i.,0.4 ± 0.1 % I.A./g
same,Biodistribution Pancreas,[2]; 4 hours p.i.,0.5 ± 0.0 % I.A./g
same,Biodistribution Spleen,[2]; 4 hours p.i.,0.2 ± 0.0 % I.A./g
same,Biodistribution Stomach,[2]; 4 hours p.i.,0.3 ± 0.1 % I.A./g
same,Biodistribution Adrenal,[2]; [6],0.3 ± 0.1 % IA/g
same,Biodistribution Blood,[2]; [6],0.5 ± 0.1 % IA/g
same,Biodistribution Femur,[2]; [6],1.6 ± 0.3 % IA/g
same,Biodistribution HT1080.hFAP (FAP-positive tumor),[2]; [6],4.0 ± 0.6 % IA/g
same,Biodistribution HT1080.wt (FAP-negative tumor),[2]; [6],0.9 ± 0.1 % IA/g
same,Biodistribution Heart,[2]; [6],0.3 ± 0.0 % IA/g
same,Biodistribution Intestine,[2]; [6],0.3 ± 0.1 % IA/g
same,Biodistribution Kidney,[2]; [6],1.0 ± 0.1 % IA/g
same,Biodistribution Liver,[2]; [6],0.6 ± 0.1 % IA/g
same,Biodistribution Lung,[2]; [6],0.4 ± 0.0 % IA/g
same,Biodistribution Muscle,[2]; [6],0.4 ± 0.1 % IA/g
same,Biodistribution Pancreas,[2]; [6],0.5 ± 0.0 % IA/g
same,Biodistribution Spleen,[2]; [6],0.2 ± 0.0 % IA/g
same,Biodistribution Stomach,[2]; [6],0.3 ± 0.1 % IA/g
same,Biodistribution HT-1080.wt,[2]; 1 hour p.i.,1.4 ± 0.2 % I.A./g
same,Biodistribution HT-1080.wt,[2]; 4 hours p.i.,0.9 ± 0.1 % I.A./g
same,Biodistribution HT-1080.hFAP,[2]; 1 hour p.i.,3.5 ± 1.0 % I.A./g
same,Biodistribution HT-1080.hFAP,[2]; 4 hours p.i.,4.0 ± 0.6 % I.A./g
same,accumulation in tumor and target-positive tissues,[2]; HT-1080.hFAP and HT-1080.wt xenografts,high accumulation in FAP-positive (HT-1080.hFAP) tumor and murine-FAP-positive tissues
CN(C(=O)CCC(=O)N1CCN(C(=O)CC[C@H](C(=O)O)N2CCN3CCN(CC2)CC(=O)[O][Cu][O]C(=O)C3)CC1)c1ccc2nccc(C(=O)NCC(=O)N3CC(F)(F)C[C@H]3C#N)c2c1 [[^61Cu]Cu-NODAGA-F4],Kd,[1],3 to 3.9 nM
O=C([O-])CN(CCN(CC(=O)[O-])Cc1cc(CCC(=O)NCCCCCC(=O)NCCCC[C@H](NC(=O)N[C@@H](CCC(=O)O)C(=O)O)C(=O)O)ccc1[O-])Cc1cc(CCC(=O)O)ccc1[O-].[68Ga+3].[OH3+] [[^68Ga]Ga-PSMA-11],Biodistribution Adrenal,[3],19.2 ± 5.35 % IA/g
same,Biodistribution Blood,[3],0.25 ± 0.07 % IA/g
same,Biodistribution Bone,[3],3.69 ± 1.86 % IA/g
same,Biodistribution Heart,[3],0.32 ± 0.10 % IA/g
same,Biodistribution Intestine,[3],1.52 ± 0.60 % IA/g
same,Biodistribution Kidney,[3],159 ± 31 % IA/g
same,Biodistribution LNCaP-tumor,[3],10.2 ± 1.53 % IA/g
same,Biodistribution Liver,[3],0.54 ± 0.27 % IA/g
same,Biodistribution Lung,[3],1.43 ± 0.43 % IA/g
same,Biodistribution Muscle,[3],0.90 ± 0.36 % IA/g
same,Biodistribution Pancreas,[3],0.70 ± 0.12 % IA/g
same,Biodistribution Salivary gland,[3],1.56 ± 0.31 % IA/g
same,Biodistribution Spleen,[3],6.38 ± 1.37 % IA/g
same,Biodistribution Stomach,[3],0.69 ± 0.11 % IA/g
same,Ratio Tumor/Blood,[3],45.3 ± 19.7
same,Ratio Tumor/Kidney,[3],0.07 ± 0.02
same,Ratio Tumor/Liver,[3],23.5 ± 12.5
same,Ratio Tumor/Muscles,[3],13.6 ± 8.3
same,log D(O/PBS pH 7.4),[4],−3.89 ± 0.19

# Reference: patent publication US20240173440A1, “HIGH PURITY COPPER RADIOPHARMACEUTICAL COMPOSITIONS AND DIAGNOSTIC AND THERAPEUTIC USES THEREOF” (Nuclidium AG, priority 2022, published 2024)
